Patent publication US20220372013A2, “PIPERIDINE-2,6-DIONE DERIVATIVES AND CROHN'S DISEASE TREATING” (Tianjin Hemay Pharmaceutical Sci-Tech Co., Ltd, priority 2016, published 2022)

Experiments:
[1] = test system: DNBS-Induced Inflammatory Bowel Disease Models in Rats; test: Biological Example 2: DNBS-induced inflammatory bowel disease models in rats; format: in vivo, Wistar rats
Method: 110 male Wistar rats were fasted for 40 hours. A 5% glucose injection (10 mL/Kg) was administered subcutaneously during fasting. 48 rats with normal conditions and moderate body weight were selected from the fasting rats. The animals were randomly divided into […] according to the body weight: normal control group, model control group, sulfasalazine group (300 mg/Kg), dexamethasone group (0.1 mg/Kg), the compound in Example 26 group (30 mg/kg) and the compound in Example 27 group (30 mg/kg), with 8 rats in each group. The animals were anesthetized with isoflurane. A specially made gavage device (made by a rat gavage device having the diameter of 2 mm, which was nested on a mouse gavage device having the diameter of 1 mm) was slowly inserted into the enteric cavity at 8 cm from the anus. The model control group, the compound in Example 26 group and the compound in Example 27 group were administered with 0.5 mL of 50 mg/mL DNBS in 30% ethanol solution. The normal control group was administered with 0.5 mL of 30% ethanol solution. The animals were inverted in anesthesia for 15 minutes after the gavage device was removed. The day when the model was prepared was the first day of the experiment. After 4 hours of DNBS induction, the corresponding drug or the corresponding volume of 1% CMC-Na was administered once per day. On the sixth day of the experiment, the animals were euthanized to observe the results of each index so as to score the colon adhesion degree, measure the length of colon and ulcer area, weigh colon and calculate the colon weight to length ratio.
The compound in Example 26 and Example 27, sulfasalazine and dexamethasone: Preparation Method: Suspended with 1% CMC-Na, and prepared when it was needed.
Levene's Test for homogeneity of data was performed with Spss. Where the data were homogeneous (P>0.05), one-way ANOVA LSD test was performed. Where the analysis of variance was significant (P≤0.05), Dunnett's multiple comparison (parameter method) was performed. Where the results of Levene's Test were significant (P≤0.05), Kruskal-Wallis nonparametric test was performed. Where the results of Kruskal-Wallis nonparametric test were significant (P≤0.05), Mann-Whitney U test was performed for pairwise comparison.

[2] = test system: DNBS-Induced Inflammatory Bowel Disease Models in Rats; test: Biological Example 1: DNBS-induced inflammatory bowel disease models in rats; format: in vivo, Wistar rats; details: for Adhesion Degree / Colon MPO Activity / Colon Weight / Colon weight to length ratio / Ulcer Area: sixth day, Mean ± SD
Method: Wistar rats, male, body weight of 100-120 g.
90 male Wistar rats were fasted for 40 hours. A 5% glucose injection was administered subcutaneously during fasting. 60 rats with normal conditions and moderate body weight were selected from the fasting rats. The animals were randomly divided into 6 groups according to the body weight: normal control group, model control group, sulfasalazine group (300 mg/Kg), and the compound in Example 27 groups consisting of 5, 15 and 30 mg/Kg dose groups. There were 10 rats in each group. The animals were anesthetized with ether. A specially made gavage device (made by a rat gavage device having the diameter of 2 mm, which was nested on a mouse gavage device having the diameter of 1 mm) was slowly inserted into the enteric cavity at 8 cm from the anus. The model control group, the sulfasalazine group and the compound in Example 27 groups were administered with 0.5 mL of 50 mg/mL DNBS in 30% ethanol solution. The normal control group was administered with 0.5 mL of 30% ethanol solution. The animals were inverted in anesthesia for 15 minutes after the gavage device was removed. The day when the model was prepared was the first day of the experiment. After 4 hours of DNBS induction, the corresponding drug or the corresponding volume of 1% CMC-Na was administered once per day. The body weights were recorded and the stool characteristics were scored. On the sixth day of the experiment colon tissues were taken from the animals to observe the results of each index.
The compound in Example 27 and sulfasalazine: Preparation Method: Suspended with 1% CMC-Na, and prepared when it was needed.
Animals were euthanized on the sixth day of the experiment to observe the results of each index. After the animals were sacrificed, colons were obtained. The adhesion degree of colon was observed and the length of the colon was measured. The ulcer area was calculated after removing the contents in the colon and the weight of the colon tissue was weighed. The colon tissue was longitudinally divided into two parts. One part of the colon tissue was fixed in 10% formalin solution for later use. The other part of the colon tissue was put into the liquid nitrogen to quickly frozen, and then was reserved at −80° C. for the detection of MPO.
Calculation method for ulcer area: length of ulcer point (cm)×width of ulcer point (cm).
The frozen tissue was ground into powder in liquid nitrogen. An appropriate amount of the powder was weighed and was added into 50 mM potassium phosphate solution (containing 0.5% cetyltrimethylammonium bromide) to give a 25 mg/mL solution. The resultant solution was homogenized by an electric homogenizer. 1 mL of suspension was centrifuged to give a supernatant. 7 μL of the supernatant was added into a 96-well plate and 200 μL of o-dianisidine mixture (containing 0.167 mg/mL o-dianisidine and 0.0006% H2O2 potassium phosphate buffer). OD values of the resultant solution at 0, 30, 60, and 90 s were detected at 450 nm of the microplate reader.
Test for homogeneity of variance was performed with Spss13.0. Where variance of data was homogeneous (P>0.05), one-way ANOVA LSD test was performed. Where the analysis of variance was significant (P<0.05), then Dunnett's multiple comparison (parameter method) or Kruskal-Wallis non-parametric test was performed. Where the results of Kruskal-Wallis non-parametric test were significant (P<0.05), the Mann-Whitney U test was performed for pairwise comparison.

[3] = 30 mg/Kg i.g. qd × 6, sixth day, Mean ± SD

With `COCCN1C(=O)CCC(N2C(=O)c3cccc(N)c3C2=O)C1=O` (centres unmarked) [Example 27, 4-amino-2-(1-(2-methoxyethyl)-2,6-dioxopiperidin-3-yl)isoindolin-1,3-dione] the “Adhesion Degree” value [1, 3] was 0.9 ± 0.8 Points, the “Colon Length” value [1, 3] was 12.9 ± 2.3 cm and the “Colon Weight” value [1, 3] was 1737.9 ± 410.6 mg. The “Ulcer Area” value [1, 3] was 2.0 ± 1.9 cm^2, the “therapeutic effects on the model (in words)” value ([1]; 30 mg/kg i.g. qd × 6) was “good therapeutic effects” and the “growth rate of the body weight (in words)” value ([1]; fourth day of the experiment, compared with model control group, doses as in Table 7) was “higher than that in the model control group”. The “Adhesion Degree” value ([2]; 5 mg/Kg i.g. qd × 6) was 0.4 ± 0.7 Point, the “Colon MPO Activity” value ([2]; 5 mg/Kg i.g. qd × 6) was 20.3 ± 19.8 U/mg and the “Colon Weight” value ([2]; 5 mg/Kg i.g. qd × 6) was 1775.7 ± 321.0 mg. The “Colon weight to length ratio” value ([2]; 5 mg/Kg i.g. qd × 6) was 144.2 ± 30.5 mg/cm, the “Ulcer Area” value ([2]; 5 mg/Kg i.g. qd × 6) was 0.8 ± 0.9 cm^2 and the “therapeutic effect (in words)” value ([2]; 5 mg/Kg, 15 mg/Kg and 30 mg/Kg) was “a certain dose effect and a good therapeutic effect without the weight loss of animals”. For the same molecule, the “Adhesion Degree” value ([2]; 15 mg/Kg i.g. qd × 6) was 0.1 ± 0.3 Point, the “Colon MPO Activity” value ([2]; 15 mg/Kg i.g. qd × 6) was 16.7 ± 9.8 U/mg and the “Colon Weight” value ([2]; 15 mg/Kg i.g. qd × 6) was 1668.7 ± 245.3 mg. For the same molecule, the “Colon weight to length ratio” value ([2]; 15 mg/Kg i.g. qd × 6) was 127.1 ± 13.7 mg/cm, the “Ulcer Area” value ([2]; 15 mg/Kg i.g. qd × 6) was 0.7 ± 0.9 cm^2 and the “Adhesion Degree” value ([2]; 30 mg/Kg i.g. qd × 6) was 0.1 ± 0.3 Point. The “Colon MPO Activity” value ([2]; 30 mg/Kg i.g. qd × 6) was 15.1 ± 13.0 U/mg, the “Colon Weight” value ([2]; 30 mg/Kg i.g. qd × 6) was 1534.7 ± 156.2 mg and the “Colon weight to length ratio” value ([2]; 30 mg/Kg i.g. qd × 6) was 117.7 ± 19.4 mg/cm. For the same molecule, the “Ulcer Area” value ([2]; 30 mg/Kg i.g. qd × 6) was 0.3 ± 0.5 cm^2 and the “reduction of the ulcer area” value ([2]; 30 mg/Kg, vs model control group) was “about 80%”.
